Patent US20030078251A1, “Benzoxazepinones and their use as squalene synthase inhibitors” (priority 2000, published 2003)

Structure (SMILES) | melting point
COc1ccc(C(=O)O)cc1NC(=O)C[C@H]1O[C@H](c2cccc(OC)c2OC)c2cc(Cl)ccc2N(CC(C)(C)CO)C1=O [Example 102, 3-[[(3R,5S)-7-Chloro-5-(2,3-dimethoxyphenyl)-1-(3-hydroxy-2,2-dimethylpropyl)-2-oxo-1,2,3,5-tetrahydro-4,1-benzoxazepin-3-yl]acetyl]amino-4-methoxybenzoic acid] | 171 to 173 °C
COc1cccc([C@H]2O[C@H](CC(=O)Nc3cc(C(=O)O)ccc3F)C(=O)N(CC(C)(C)CO)c3ccc(Cl)cc32)c1OC [Example 106, 3-[[[(3R,5S)-7-Chloro-5-(2,3-dimethoxyphenyl)-1-(3-hydroxy-2,2-dimethylpropyl)-2-oxo-1,2,3,5-tetrahydro-4,1-benzoxazepin-3-yl]acetyl]amino]-4-fluorobenzoic acid] | 163 to 166 °C
COc1cccc([C@H]2O[C@H](CC(=O)Nc3cc(C(=O)O)ccc3F)C(=O)N(CC(C)(C)COC(C)=O)c3ccc(Cl)cc32)c1OC [Example 107, 3-[[[(3R,5S)-1-(3-Acetoxy-2,2-dimethylpropyl)-7-chloro-5-(2,3-dimethoxyphenyl)-2-oxo-1,2,3,5-tetrahydro-4,1-benzoxazepin-3-yl]acetyl]amino]-4-fluorobenzoic acid] | 146 to 149 °C
COc1ccc(CC(=O)O)cc1NC(=O)C[C@H]1O[C@H](c2cccc(OC)c2OC)c2cc(Cl)ccc2N(CC(C)(C)CO)C1=O [Example 109] | 215 to 216 °C
COc1cccc([C@H]2O[C@H](CC(=O)Nc3cc4c(c(C(=O)O)c3)CCCC4)C(=O)N(CC(C)(C)CO)c3ccc(Cl)cc32)c1OC [Example 112, 3-[[[(3R,5S)-7-Chloro-5-(2,3-dimethoxyphenyl)-1-(3-hydroxy-2,2-dimethylpropyl)-2-oxo-1,2,3,5-tetrahydro-4,1-benzoxazepin-3-yl]acetyl]amino]-5,6,7,8-tetrahydro-1-naphthoic acid] | 178 to 179 °C
COc1cccc([C@@H]2O[C@@H](CC(=O)NCCc3occc3C(=O)O)C(=O)N(CC(C)(C)CO)c3ccc(Cl)cc32)c1OC [Example 119, 2-[2-[[[(3S,5R)-7-Chloro-5-(2,3-dimethoxyphenyl)-1-(3-hydroxy-2,2-dimethylpropyl)-2-oxo-1,2,3,5-tetrahydro-4,1-benzoxazepin-3-yl]acetyl]amino]ethyl]furan-3-carboxylic acid] | 123 to 126 °C
COc1cccc([C@H]2O[C@H](CC(=O)Nc3ccc(OCCCc4ccccc4)c(CCC(=O)O)c3)C(=O)N(CC(C)(C)CO)c3ccc(Cl)cc32)c1OC [Example 124, 3-[5-[[[(3R,5S)-7-Chloro-5-(2,3-dimethoxyphenyl)-1-(3-hydroxy-2,2-dimethylpropyl)-2-oxo-1,2,3,5-tetrahydro-4,1-benzoxazepin-3-yl]acetyl]amino]-2-(3-phenylpropyloxy)phenyl]propionic Acid] | 147 to 149 °C
COc1cccc([C@H]2O[C@H](CC(=O)Nc3cc(CCC(=O)O)ccc3OCCCc3ccccc3)C(=O)N(CC(C)(C)CO)c3ccc(Cl)cc32)c1OC [Example 125, 3-[3-[[[(3R,5S)-7-Chloro-5-(2,3-dimethoxyphenyl)-1-(3-hydroxy-2,2-dimethylpropyl)-2-oxo-1,2,3,5-tetrahydro-4,1-benzoxazepin-3-yl]acetyl]amino]-4-(3-phenylpropyloxy)phenyl]propionic Acid] | 162 to 165 °C
COc1cccc([C@H]2O[C@H](CC(=O)Nc3cccc4c(C(=O)O)cccc34)C(=O)N(CC(C)(C)CO)c3ccc(Cl)cc32)c1OC [Example 129, 5-[[2-[(3R,5S)-7-Chloro-5-(2,3-dimethoxyphenyl)-1-(3-hydroxy-2,2-dimethylpropyl)-2-oxo-1,2,3,5-tetrahydro-4,1-benzoxazepin-3-yl]acetyl]amino]-1-naphthoic acid] | 171 to 174 °C
COc1cccc([C@H]2O[C@H](CC(=O)Nc3ccc(OC(F)(F)C(=O)O)cc3)C(=O)N(CC(C)(C)CO)c3ccc(Cl)cc32)c1OC [Example 132, 2-[4-[[[(3R,5S)-7-Chloro-5-(2,3-dimethoxyphenyl)-1-(3-hydroxy-2,2-dimethylpropyl)-2-oxo-1,2,3,5-tetrahydro-4,1-benzoxazepin-3-yl]acetyl]amino]phenyloxy]-2,2-difluoroacetic acid] | 149 to 150 °C
COc1cccc([C@H]2O[C@H](CC(=O)Nc3ccc(OCC(=O)O)cc3F)C(=O)N(CC(C)(C)CO)c3ccc(Cl)cc32)c1OC [Example 136] | 192 to 193 °C (dec.)
COc1ccc(C(C)(C)C(=O)O)cc1NC(=O)C[C@H]1O[C@H](c2cccc(OC)c2OC)c2cc(Cl)ccc2N(CC(C)(C)CO)C1=O [Example 137, 2-[3-[[2-[(3R,5S)-7-Chloro-5-(2,3-dimethoxyphenyl)-1-(3-hydroxy-2,2-dimethylpropyl)-2-oxo-1,2,3,5-tetrahydro-4,1-benzoxazepin-3-yl]acetyl]amino]-4-methoxyphenyl]-2,2-dimethylacetic acid] | 225 to 226 °C (dec.)
COc1ccc(C(C)(C)CCC(=O)O)cc1NC(=O)C[C@H]1O[C@H](c2cccc(OC)c2OC)c2cc(Cl)ccc2N(CC(C)(C)CO)C1=O [Example 138, 4-[3-[[2-[(3R,5S)-7-Chloro-5-(2,3-dimethoxyphenyl)-1-(3-hydroxy-2,2-dimethylpropyl)-2-oxo-1,2,3,5-tetrahydro-4,1-benzoxazepin-3-yl]acetyl]amino]-4-methoxyphenyl]-4,4-dimethylbutanoic acid] | 173 to 174 °C
COc1ccc(CCCCC(=O)O)cc1NC(=O)C[C@H]1O[C@H](c2cccc(OC)c2OC)c2cc(Cl)ccc2N(CC(C)(C)CO)C1=O [Example 139, 5-[3-[[2-[(3R,5S)-7-Chloro-5-(2,3-dimethoxyphenyl)-1-(3-hydroxy-2,2-dimethylpropyl)-2-oxo-1,2,3,5-tetrahydro-4,1-benzoxazepin-3-yl]acetyl]amino]-4-methoxyphenyl]pentanoic acid] | 136 to 138 °C
COc1cccc([C@H]2O[C@H](CC(=O)Nc3cccc(C(=O)O)n3)C(=O)N(CC(C)(C)CO)c3ccc(Cl)cc32)c1OC [Example 140, 6-[[[(3R,5S)-5-(2,3-Dimethoxyphenyl)-7-chloro-1-(3-hydroxy-2,2-dimethylpropyl)-2-oxo-1,2,3,5-tetrahydro-4,1-benzoxazepin-3-yl]acetyl]amino]-2-pyridinecarboxylic acid] | 265 to 270 °C (dec.)
COc1cccc([C@H]2O[C@H](CC(=O)Nc3ncc(C(=O)O)s3)C(=O)N(CC(C)(C)CO)c3ccc(Cl)cc32)c1OC [Example 141, 2-[[[(3R,5S)-7-Chloro-5-(2,3-dimethoxyphenyl)-1-(3-hydroxy-2,2-dimethylpropyl)-2-oxo-1,2,3,5-tetrahydro-4,1-benzoxazepin-3-yl]acetyl]amino]-1,3-thiazole-5-carboxylic acid] | 241 to 242.2 °C

Further lines, results first:

melting point | Structure (SMILES)
115 to 118 °C | COc1cccc([C@H]2O[C@H](CC(=O)Nc3cc(CCCCC(=O)O)ccc3F)C(=O)N(CC(C)(C)CO)c3ccc(Cl)cc32)c1OC [Example 108, 5-[3-[[[(3R,5S)-7-Chloro-5-(2,3-dimethoxyphenyl)-1-(3-hydroxy-2,2-dimethylpropyl)-2-oxo-1,2,3,5-tetrahydro-4,1-benzoxazepin-3-yl]acetyl]amino]-4-fluorophenyl]pentanoic acid]
119 to 121 °C | COc1ccc(CCCC(=O)O)cc1NC(=O)C[C@H]1O[C@H](c2cccc(OC)c2OC)c2cc(Cl)ccc2N(CC(C)(C)CO)C1=O [Example 110, 4-[3-[[[(3R,5S)-7-Chloro-5-(2,3-dimethoxyphenyl)-1-(3-hydroxy-2,2-dimethylpropyl)-2-oxo-1,2,3,5-tetrahydro-4,1-benzoxazepin-3-yl]acetyl]amino]-4-methoxyphenyl]butanoic acid]
119 to 122 °C | COc1cccc([C@H]2O[C@H](CC(=O)Nc3cccc(CCCC(=O)O)c3)C(=O)N(CC(C)(C)CO)c3ccc(Cl)cc32)c1OC [Example 111, 4-[3-[[[(3R,5S)-7-Chloro-5-(2,3-dimethoxyphenyl)-1-(3-hydroxy-2,2-dimethylpropyl)-2-oxo-1,2,3,5-tetrahydro-4,1-benzoxazepin-3-yl]acetyl]amino]phenyl]butanoic acid]
137 to 139 °C | COc1cccc([C@@H]2O[C@@H](CC(=O)Nc3cccc(CCC(=O)O)c3)C(=O)N(CC(C)(C)CO)c3ccc(Cl)cc32)c1OC [Example 120, 3-[3-[[(3S,5R)-7-Chloro-5-(2,3-dimethoxyphenyl)-1-(3-hydroxy-2,2-dimethylpropyl)-2-oxo-1,2,3,5-tetrahydro-4,1-benzoxazepin-3-yl]acetyl]aminophenyl]propionic Acid]
151 to 153 °C | COc1cccc([C@@H]2O[C@@H](CC(=O)Nc3cc(CCC(=O)O)ccc3F)C(=O)N(CC(C)(C)CO)c3ccc(Cl)cc32)c1OC [Example 121, 3-[3-[[[(3S,5R)-7-Chloro-5-(2,3-dimethoxyphenyl)-1-(3-hydroxy-2,2-dimethylpropyl)-2-oxo-1,2,3,5-tetrahydro-4,1-benzoxazepin-3-yl]acetyl]amino]-4-fluorophenyl]propionic Acid]
119 to 121 °C | COc1cccc([C@H]2O[C@H](CC(=O)Nc3cccc(OC(F)(F)C(=O)O)c3)C(=O)N(CC(C)(C)CO)c3ccc(Cl)cc32)c1OC [Example 133, 2-[3-[[[(3R,5S)-7-Chloro-5-(2,3-dimethoxyphenyl)-1-(3-hydroxy-2,2-dimethylpropyl)-2-oxo-1,2,3,5-tetrahydro-4,1-benzoxazepin-3-yl]acetyl]amino]phenyloxy]-2,2-difluoroacetic acid]
123 to 125 °C | COc1cccc([C@H]2O[C@H](CC(=O)Nc3ccc(F)c(CCC(=O)O)c3)C(=O)N(CC(C)(C)CO)c3ccc(Cl)cc32)c1OC [Example 134, 3-[5-[[[(3R,5S)-7-Chloro-5-(2,3-dimethoxyphenyl)-1-(3-hydroxy-2,2-dimethylpropyl)-2-oxo-1,2,3,5-tetrahydro-4,1-benzoxazepin-3-yl]acetyl]amino]-2-fluorophenyl]propionic Acid]
117 to 119 °C | COc1cccc([C@H]2O[C@H](CC(=O)Nc3cccc(CCCCC(=O)O)c3)C(=O)N(CC(C)(C)CO)c3ccc(Cl)cc32)c1OC [Example 135, 5-[3-[[[(3R,5S)-7-Chloro-5-(2,3-dimethoxyphenyl)-1-(3-hydroxy-2,2-dimethylpropyl)-2-oxo-1,2,3,5-tetrahydro-4,1-benzoxazepin-3-yl]acetyl]amino]phenyl]pentanoic acid]
